From US20040110206A1, “Waveform modulated light emitting diode (LED) light source for use in a method of and apparatus for screening to identify drug candidates” (Bio TechPlex Corporation, priority 2002, published 2004)

Tested on: normal human bronchial epithelial cells (NHBE)
Experiment: Cumulative dose kinetic responses of intracellular Ca++, Cl- and cell membrane potential (simultaneous Fluo-3, di-MEQ and RH421 fluorescence photon counting)
Format: cell-based
Experimental: Normal human bronchial/tracheal epithelial cells (NHBE, Clonetics) were cultured in T-25 cm^2 flasks at 37° C., 5% CO2 using Bronchial/Tracheal Epithelial Cell Growth Medium containing Retinoic Acid (BEGM, w/RA, Clonetics). When the NHBE cells in the T-25 flasks reached 60%-80% confluency, the cells were passaged using a seeding density of 3500 cells/cm^2. A portion of the cells was passaged in T-25 flasks again while the remaining cells were seeded on UV-exposed Vitrogen (pH balanced 1:1 BEGM to Vitrogen) coated 4-well cover glass chambers (LabTek II). NHBE cells normally attached to the collagen-coated cover glass chamber within 24 hrs. Prior to these cells reaching 60% confluency, they were used for all the experiments described below. Cells used in all the experiments were either 2nd or 3rd passage cells maintained in Bronchial/Tracheal Epithelial Cell Growth Medium with Retinoic Acid (BEGM, w/RA, Clonetics).
The following procedures for loading the cells with fluorophore were employed. Balanced Hank's (BH) solution without phenol red was used as the medium for all the fluorophore preparations and cell washings unless stated otherwise. Fluo-3 (a Ca^++ indicator), di-MEQ (a Cl^− indicator) and RH421 (a cell membrane potential indicator) were loaded into cells sequentially at room temperature. Cells were first incubated with 8 μM Fluo-3 solution for 60 minutes, followed by incubating with 50 μM di-MEQ for 5 minutes and then finally with 10 μM RH421 for 5 minutes. Extraneous dyes were washed with BH solution between each fluorophore loading procedure. The cells were allowed to stabilize in BEGM for a minimum of 15 minutes at room temperature prior to the beginning of each experiment.
Experiments were performed at room temperature. All tested agents were prepared in Balanced Hank's Solution. One of the wells of the cover glass chamber was placed on the stage of the inverted microscope and the cells loaded with the fluorophores were visually focused with the violet, green and orange emitted light from the cells approximately in the same focal plane. At a sampling frequency of 100 Hz, cells with the following photon counts were chosen for the study: 20 to 50 counts per channel (cpc) for Ca^++ fluorescence, 70 to 200 cpc for Cl^− fluorescence, and 20 to 50 cpc for cell membrane potential fluorescence. After establishing a 2 minute baseline, increasing doses of the agent of interest were added topically to the wells 2 minutes apart. At the end of each experiment, a toxic dose of the agent of interest was added to the sample to either shrink or swell the cells beyond their normal cell volume regulatory range. This caused the fluorescence signals of each of these fluorophores to reach either maximum or minimum values. […] Background fluorescence was recorded using a cell free area of the same well. If the signal to background ratio was not higher than a factor of 10, the experiments were also discarded.
The kinetic responses were measured as photon counts acquired in 10 ms intervals over>800 seconds. […] The correlation of these events and their kinetics, observations that can only be made with the present invention, provides unique insights into the mechanism by which Glibenclamide affects the cells.
UTP is a ligand to the p2Y receptor. The kinetic responses were measured as photon counts acquired in 10 ms intervals over >800 seconds.
Hyperpolarization of the cell membrane can also be induced via different cellular mechanisms such as by decreasing intracellular potassium. […] The kinetic responses were measured as photon counts acquired in 10 ms intervals over >900 seconds. It should be noted that the relative potencies of these agents in terms of the mechanisms for eliciting the temporal responses, the duration of the agent actions and the magnitude of hyperpolarization of the cell membrane can be compared and monitored for the first time. […]

| SMILES | intracellular Ca++ response (500 μM) | intracellular Cl- response (500 μM) | membrane potential response (500 μM) | cell membrane potential response (Glibenclamide 25 μM to 500 μM cumulative) | [Cl-]i response (Glibenclamide 25 μM to 500 μM cumulative, MEQ fluorescence inversely proportional to [Cl-]i) | intracellular Ca++ response (concentrations below 500 μM) | intracellular Cl- response (concentrations below 500 μM) | membrane potential response (concentrations below 500 μM) | intracellular Cl- response (0.1 mM and 1 mM) | membrane potential response (0.1 mM and 1 mM) | intracellular Ca++ response (0.1 mM and 1 mM, increase followed by a measurable rate of decline) |
| --- | --- | --- | --- | --- | --- | --- | --- | --- | --- | --- | --- |
| COc1ccc(Cl)cc1C(=O)NCCc1ccc(S(=O)(=O)NC(=O)NC2CCCCC2)cc1 [Glibenclamide] | rapid increase | simultaneous drop | simultaneous increase | hyperpolarized the cell membrane | increased | little affected | declines as Glibenclamide concentration increases | little affected |  |  |  |
| O=c1ccn([C@@H]2O[C@H](COP(=O)(O)OP(=O)(O)OP(=O)(O)O)[C@@H](O)[C@H]2O)c(=O)[nH]1 [UTP, uridine triphosphate] |  |  |  |  |  |  |  |  | essentially no changes | essentially no changes | rapid increase |
